# Data: PMC10891602, “Improvement of Carotenoids’ Production by Increasing the Activity of Beta-Carotene Ketolase with Different Strategies” (Microorganisms, 2024)
# Assays:
# [1] = target: T1, CrtWBsp (Brevundimonas sp. NBRC 101024, UniProt Q4W8B8); assay: HPLC of echinenone and canthaxanthin formed by crude extract; assay type: biochemical; settings: Fe2+, 2-oxoglutarate, ascorbate, NADPH, ATP; pH 8.0; 30 °C; 3 h
# T1 construct: gene crtW
# T1 sequence (Q4W8B8 1-244): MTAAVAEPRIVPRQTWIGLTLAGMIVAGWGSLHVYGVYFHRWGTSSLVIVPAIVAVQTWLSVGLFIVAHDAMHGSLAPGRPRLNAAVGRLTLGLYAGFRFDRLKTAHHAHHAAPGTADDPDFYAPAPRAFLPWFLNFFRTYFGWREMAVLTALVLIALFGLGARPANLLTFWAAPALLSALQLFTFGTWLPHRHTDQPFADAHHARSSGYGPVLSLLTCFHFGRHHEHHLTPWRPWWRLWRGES
# [2] = target: T2, CzW1 (Chromochloris zofingiensis, UniProt Q5U931); assay: as above; assay type: biochemical; settings: Fe2+, 2-oxoglutarate, ascorbate, NADPH, ATP; pH 8.0; 30 °C; 3 h
# T2 construct: gene bkt/crto
# T2 sequence (Q5U931 1-312): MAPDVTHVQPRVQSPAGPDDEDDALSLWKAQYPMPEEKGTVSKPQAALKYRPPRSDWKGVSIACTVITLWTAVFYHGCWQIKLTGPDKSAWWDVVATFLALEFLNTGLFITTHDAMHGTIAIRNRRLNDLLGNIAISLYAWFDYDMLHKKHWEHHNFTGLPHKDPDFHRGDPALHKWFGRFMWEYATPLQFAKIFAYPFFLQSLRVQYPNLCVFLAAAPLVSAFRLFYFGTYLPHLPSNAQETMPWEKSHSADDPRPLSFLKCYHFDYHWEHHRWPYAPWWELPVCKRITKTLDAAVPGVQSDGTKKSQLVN
smiles,measurement,setting,value
CC1=C(/C=C/C(C)=C/C=C/C(C)=C/C=C/C=C(C)/C=C/C=C(C)/C=C/C2=C(C)CCCC2(C)C)C(C)(C)CCC1 [β-carotene],HPLC of echinenone and canthaxanthin formed by crude extract,[1],β-carotene ketolase from p30CrtWBsp was more efficient in the production of echinenone and canthaxanthin
same,HPLC of echinenone and canthaxanthin formed by crude extract,[2],canthaxanthin was only detected in enzymatic solution containing protein extracts from E. coli with pCrtWBsp and pCzW1
